Article PMC10233710 (ChemMedChem, 2023)

Tests used:
recombinant TOP1 = target: T1, recombinant TOP1 (Homo sapiens, UniProt P11387); test: TOP1-mediated DNA cleavage assay; type: biochemical; details: semiquantitative relative to CPT at 1 μM
T1 sequence (P11387 1-765): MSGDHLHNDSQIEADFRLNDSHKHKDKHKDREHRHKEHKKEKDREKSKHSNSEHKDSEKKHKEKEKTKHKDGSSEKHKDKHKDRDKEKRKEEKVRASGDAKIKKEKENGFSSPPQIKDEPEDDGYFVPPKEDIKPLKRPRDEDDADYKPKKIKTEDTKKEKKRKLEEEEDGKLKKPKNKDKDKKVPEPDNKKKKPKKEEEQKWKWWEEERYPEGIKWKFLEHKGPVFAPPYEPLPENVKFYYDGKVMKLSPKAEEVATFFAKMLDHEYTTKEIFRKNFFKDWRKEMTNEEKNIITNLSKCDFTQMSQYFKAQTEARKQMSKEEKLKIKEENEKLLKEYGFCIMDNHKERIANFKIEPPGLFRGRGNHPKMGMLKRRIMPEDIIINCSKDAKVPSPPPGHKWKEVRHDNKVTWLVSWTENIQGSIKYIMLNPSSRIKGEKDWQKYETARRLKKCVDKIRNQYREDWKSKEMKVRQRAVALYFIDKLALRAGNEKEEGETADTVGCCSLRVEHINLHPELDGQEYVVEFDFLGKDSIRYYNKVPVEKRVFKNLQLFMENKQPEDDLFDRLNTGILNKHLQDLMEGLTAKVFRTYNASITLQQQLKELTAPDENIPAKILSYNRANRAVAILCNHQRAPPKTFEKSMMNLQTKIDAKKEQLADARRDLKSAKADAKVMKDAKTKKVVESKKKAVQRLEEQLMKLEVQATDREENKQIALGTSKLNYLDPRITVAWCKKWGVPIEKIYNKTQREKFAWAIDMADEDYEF

[1] = system: MCF-7/TDP1 cells (overexpressing TDP1); test: Drug combination with TPT; type: cell-based, human; details: co-incubated with TPT for 96 h
MCF-7 cells [2] = test: MTT cytotoxicity assay, MCF-7; type: cell-based, human; details: Homo sapiens, MCF7, 72 h, read-out: GI50 ± SD (μM) MCF-7
HCT-116 cells = test: MTT cytotoxicity assay, HCT-116; type: cell-based, human; details: Homo sapiens, HCT-116, 72 h, read-out: GI50 ± SD (μM) HCT-116
recombinant human TDP1 = recombinant human TDP1 (Homo sapiens, UniProt Q9NUW8); test: TDP1 gel-based inhibition assay; type: biochemical
recombinant human TDP1, sequence (Q9NUW8 whole entry): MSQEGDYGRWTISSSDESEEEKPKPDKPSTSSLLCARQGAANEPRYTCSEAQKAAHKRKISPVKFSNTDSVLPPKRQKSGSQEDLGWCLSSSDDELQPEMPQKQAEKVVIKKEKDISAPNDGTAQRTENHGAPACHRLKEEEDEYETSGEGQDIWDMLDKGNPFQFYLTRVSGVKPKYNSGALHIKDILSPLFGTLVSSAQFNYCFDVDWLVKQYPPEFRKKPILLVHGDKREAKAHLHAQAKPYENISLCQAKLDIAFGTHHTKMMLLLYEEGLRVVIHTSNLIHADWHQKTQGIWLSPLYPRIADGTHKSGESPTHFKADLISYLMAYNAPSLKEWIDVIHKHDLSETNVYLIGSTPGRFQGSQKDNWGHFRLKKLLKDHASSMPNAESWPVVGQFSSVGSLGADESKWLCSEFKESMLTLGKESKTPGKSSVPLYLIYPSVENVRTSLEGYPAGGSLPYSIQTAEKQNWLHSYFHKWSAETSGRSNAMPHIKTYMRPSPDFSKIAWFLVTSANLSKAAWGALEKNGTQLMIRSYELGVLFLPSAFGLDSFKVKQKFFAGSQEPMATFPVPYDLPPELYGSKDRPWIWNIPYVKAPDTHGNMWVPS

MCF-7 cells [3] = test: Drug combination with TPT; type: cell-based, human; details: co-incubated with TPT for 96 h, 43 at 1 μM
[4] = target: T2, cellular TOP1ccs in MCF-7 cells (Homo sapiens, UniProt P11387); test: ICE assay for cellular TOP1cc; details: 1 h, 38 at 25, 50, 100 μM, TPT at 25 and 50 μM
T2 sequence (P11387 2-765 limits assumed): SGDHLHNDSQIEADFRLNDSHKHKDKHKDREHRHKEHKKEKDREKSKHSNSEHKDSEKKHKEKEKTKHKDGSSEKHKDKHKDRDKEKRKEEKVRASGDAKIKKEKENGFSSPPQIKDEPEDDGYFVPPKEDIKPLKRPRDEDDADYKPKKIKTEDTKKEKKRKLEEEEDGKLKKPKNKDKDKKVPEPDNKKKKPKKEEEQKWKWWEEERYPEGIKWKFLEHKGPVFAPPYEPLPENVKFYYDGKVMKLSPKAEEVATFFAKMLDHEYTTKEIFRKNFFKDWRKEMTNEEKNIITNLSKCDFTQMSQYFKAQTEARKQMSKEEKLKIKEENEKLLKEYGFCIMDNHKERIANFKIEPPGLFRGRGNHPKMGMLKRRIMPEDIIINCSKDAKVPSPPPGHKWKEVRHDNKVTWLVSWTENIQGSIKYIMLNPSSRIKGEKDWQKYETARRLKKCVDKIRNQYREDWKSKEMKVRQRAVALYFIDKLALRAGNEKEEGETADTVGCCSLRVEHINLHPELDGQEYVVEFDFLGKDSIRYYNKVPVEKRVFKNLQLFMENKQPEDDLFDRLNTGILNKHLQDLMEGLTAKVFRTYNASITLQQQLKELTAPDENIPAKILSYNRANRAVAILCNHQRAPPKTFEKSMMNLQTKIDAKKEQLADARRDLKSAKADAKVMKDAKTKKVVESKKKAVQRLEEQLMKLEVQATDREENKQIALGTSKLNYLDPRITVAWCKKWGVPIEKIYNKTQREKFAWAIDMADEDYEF

MCF-7 cells [5] = test: Flow cytometry apoptosis assay; type: cell-based, human; details: 4 µM, 24 h
[6] = system: γH2AX foci in MCF-7 cells; test: γH2AX immunofluorescence assay; type: cell-based, human; details: 5 h
[7] = target: cellular TDP1ccs in MCF-7 cells (Homo sapiens, UniProt Q9NUW8); details: 1 h
cellular TDP1ccs in MCF-7 cells, sequence (Q9NUW8 whole entry): as the sequence (Q9NUW8 whole entry) above

[8] = TOP1 cleavage inhibitory activity, Table 2

SMILES	TOP1 Inhibition (recombinant TOP1; [8])	TOP1 Inhibition (recombinant TOP1)	combination index (CI) with TPT [1]	GI50 (MCF-7 cells [2])	GI50 (HCT-116 cells)	IC50 (recombinant human TDP1)	combination index (CI) with TPT (MCF-7 cells [3])	cellular TOP1cc trapping [4]	late apoptosis, % cells (MCF-7 cells [5])	γH2AX foci, fold compared with TPT treated alone ([6]; co-treatment with TPT and 43 at 1 μM)	γH2AX foci, fold compared with TPT treated alone ([6]; co-treatment with TPT and 43 at 2 μM)	DNA damage (γH2AX foci) relative to that of TPT ([6]; compound alone at 1 μM)	quantity of cellular TDP1cc ([7]; co-treated with TPT (10 μM) and 43 (10 and 100 μM))	cellular TDP1ccs ([7]; compound alone at 100 μM)	γH2AX foci formation ([6]; alone)
COc1cc2c(=O)n(C)c3c4cc5c(cc4cc(OCCCN(C)C)c3c2cc1OC)OCO5 [Compound 35, 5-(3-(Dimethylamino)propoxy)-2,3-dimethoxy-12-methyl-[1,3]dioxolo[4’,5’:4,5]benzo[1,2-c]phenanthridin-13(12H)-one]	0	no TOP1 inhibition	0.003–0.51	1.2 ± 0.1 µM	0.55 ± 0.17 µM	18 ± 6.9 µM	0.02–0.69	–	–	–	–	–	–	–	–
COc1cc2c(=O)n(C)c3c4cc5c(cc4cc(OCCN4CCCC4)c3c2cc1OC)OCO5 [Compound 38, 2,3-Dimethoxy-12-methyl-5-(2-(pyrrolidin-1-yl)ethoxy)-[1,3]dioxolo[4’,5’:4,5]benzo[1,2-c]phenanthridin-13(12H)-one]	+++ (+++, between 75% and 95% activity)	–	–	6.4 ± 1 µM	0.25 ± 0.02 µM	37 to 111 µM	–	trapped cellular TOP1ccs in MCF-7 cells in a dose-dependent manner	–	–	–	–	–	–	–
COc1cc2c(=O)n(C)c3c4cc5c(cc4cc(OCCCN4CCOCC4)c3c2cc1OC)OCO5 [Compound 41, 2,3-Dimethoxy-12-methyl-5-(3-morpholinopropoxy)-[1,3]dioxolo[4’,5’:4,5]benzo[1,2-c]phenanthridin-13(12H)-one]	+ (+, between 20% and 50% activity)	–	–	7.9 ± 1 µM	3.3 ± 0.73 µM	> 111 µM	–	–	–	–	–	–	–	–	–
COc1cc2c(=O)n(C)c3c4cc5c(cc4cc(OCCCO)c3c2cc1OC)OCO5 [Compound 42, 5-(3-Hydroxypropoxy)-2,3-dimethoxy-12-methyl-[1,3]dioxolo[4’,5’:4,5]benzo[1,2-c]phenanthridin-13(12H)-one]	+ (+, between 20% and 50% activity)	–	–	51 ± 1.6 µM	38 ± 2.31 µM	> 111 µM	–	–	–	–	–	–	–	–	–
COc1cc2c(=O)n(C)c3c4cc5c(cc4cc(OCCCNCCO)c3c2cc1OC)OCO5 [Compound 43, 5-(3-((2-Hydroxyethyl)amino)propoxy)-2,3-dimethoxy-12-methyl-[1,3]dioxolo[4’,5’:4,5]benzo [1,2-c]phenanthridin-13(12H)-one]	+ (+, between 20% and 50% activity)	–	0.003–0.51	2.2 ± 1.2 µM	0.29 ± 0.19 µM	10 ± 3.8 µM	0.18–0.77	–	~28.58%	about 1.9 fold	~2.4 fold	about one fifth	significantly enhanced	significantly enhanced	–
COc1cc2c(=O)n(C)c3c4cc5c(cc4cc(OCCCn4ccnc4)c3c2cc1OC)OCO5 [Compound 44, 5-(3-(1H-imidazol-1-yl)propoxy)-2,3-dimethoxy-12-methyl-[1,3]dioxolo[4’,5’:4,5]benzo[1,2-c]phenanthridin-13(12H)-one]	0/+ (0/+, less than 20%)	–	–	7 ± 0.55 µM	10 ± 1.2 µM	> 111 µM	–	–	–	–	–	–	–	–	–
COc1cc2c(=O)n(C)c3c4cc5c(cc4cc(OCCCN4CCN(c6cccc(C(F)(F)F)c6)CC4)c3c2cc1OC)OCO5 [Compound 45, 2,3-Dimethoxy-12-methyl-5-(3-(4-(3-(trifluoromethyl)phenyl)piperazin-1-yl)propoxy)-[1,3]dioxolo[4’,5’:4,5]benzo[1,2-c]phenanthridin-13(12H)-one]	0	–	–	85 ± 3.8 µM	> 100 µM	> 111 µM	–	–	–	–	–	–	–	–	–
CC[C@@]1(O)C(=O)OCc2c1cc1n(c2=O)Cc2cc3c(CN(C)C)c(O)ccc3nc2-1 [TPT, Topotecan, reference compound]	–	–	–	–	–	–	–	trapped cellular TOP1ccs	–	–	–	–	–	–	could obviously induce γH2AX foci formation
